Laboratory results taken from ChEMBL document CHEMBL1132861, “Synthesis, radiolabelling and biological characterization of (D)-7-iodo-N-(1-phosphonoethyl)-5-aminomethylquinoxaline-2,3-dione, a glycine-binding site antagonist of NMDA receptors” (Bioorg Med Chem Lett, 2000).
pIC50: −log10 of the molar value. One block for each compound: values may come before it.

Assays:
[1] = biological target: Glutamate receptor ionotropic, NMDA 1 (Homo sapiens, UniProt Q05586); assay: Compound was evaluated for its binding affinity for the glycine binding site on N-methyl-D-aspartate glutamate receptor by using [3H]MDL-105519 binding assay
[2] = biological target: Glutamate receptor ionotropic kainate (Homo sapiens) (UniProt P39086+Q16478+Q16099+Q13002+Q13003); assay: Inhibition of binding of [3H]kainate to kainate at 10 uM compound concentration; format: protein-complex assay
[3] = system: Mus musculus; assay: Effective dose of the intravenously administered compound, protecting the mice in the maximal electroshock test; format: functional; details: iv
[4] = system: Mus musculus; assay: Percent protection offered by the compound (10 mg/kg) in maximal electroshock test in mice, 60 min after intravenous administration; format: functional
[5] = species on record: Mus musculus; assay: Biodistribution of the injected compound in blood of female BALB/C mice for 0.5 hours; format: ADME, organism-based; details: in vivo
[6] = species on record: Mus musculus; assay: Biodistribution of the injected compound in blood of female BALB/C mice for 2.5 hours; format: ADME, organism-based; details: in vivo
[7] = species on record: Mus musculus; assay: Biodistribution of the injected compound in blood of female BALB/C mice for 5 hours; format: ADME, organism-based; details: in vivo
[8] = species on record: Mus musculus; assay: Biodistribution of the injected compound in bone of female BALB/C mice for 0.5 hours; format: ADME, organism-based, Bone element; details: in vivo
[9] = species on record: Mus musculus; assay: Biodistribution of the injected compound in bone of female BALB/C mice for 2.5 hours; format: ADME, organism-based, Bone element; details: in vivo
[10] = species on record: Mus musculus; assay: Biodistribution of the injected compound in bone of female BALB/C mice for 5 hours; format: ADME, organism-based, Bone element; details: in vivo
[11] = species on record: Mus musculus; assay: Biodistribution of the injected compound in brain of female BALB/C mice for 0.5 hours; format: ADME, organism-based; details: in vivo
[12] = species on record: Mus musculus; assay: Biodistribution of the injected compound in brain of female BALB/C mice for 2.5 hours; format: ADME, organism-based; details: in vivo
[13] = species on record: Mus musculus; assay: Biodistribution of the injected compound in brain of female BALB/C mice for 5 hours; format: ADME, organism-based; details: in vivo
[14] = species on record: Mus musculus; assay: Biodistribution of the injected compound in heart of female BALB/C mice for 0.5 hours; format: ADME, organism-based; details: in vivo
[15] = species on record: Mus musculus; assay: Biodistribution of the injected compound in heart of female BALB/C mice for 2.5 hours; format: ADME, organism-based; details: in vivo
[16] = species on record: Mus musculus; assay: Biodistribution of the injected compound in heart of female BALB/C mice for 5 hours; format: ADME, organism-based; details: in vivo
[17] = species on record: Mus musculus; assay: Biodistribution of the injected compound in intestines of female BALB/C mice for 0.5 hours; format: ADME, organism-based, Intestine; details: in vivo
[18] = species on record: Mus musculus; assay: Biodistribution of the injected compound in intestines of female BALB/C mice for 2.5 hours; format: ADME, organism-based, Intestine; details: in vivo
[19] = species on record: Mus musculus; assay: Biodistribution of the injected compound in intestines of female BALB/C mice for 5 hours; format: ADME, organism-based, Intestine; details: in vivo
[20] = species on record: Mus musculus; assay: Biodistribution of the injected compound in kidneys of female BALB/C mice for 0.5 hours; format: ADME, organism-based, Kidney; details: in vivo
[21] = species on record: Mus musculus; assay: Biodistribution of the injected compound in kidneys of female BALB/C mice for 2.5 hours; format: ADME, organism-based, Kidney; details: in vivo
[22] = species on record: Mus musculus; assay: Biodistribution of the injected compound in kidneys of female BALB/C mice for 5 hours; format: ADME, organism-based, Kidney; details: in vivo
[23] = species on record: Mus musculus; assay: Biodistribution of the injected compound in liver of female BALB/C mice for 0.5 hours; format: ADME, organism-based; details: in vivo
[24] = species on record: Mus musculus; assay: Biodistribution of the injected compound in liver of female BALB/C mice for 2.5 hours; format: ADME, organism-based; details: in vivo
[25] = species on record: Mus musculus; assay: Biodistribution of the injected compound in liver of female BALB/C mice for 5 hours; format: ADME, organism-based; details: in vivo
[26] = species on record: Mus musculus; assay: Biodistribution of the injected compound in lung of female BALB/C mice for 0.5 hours; format: ADME, organism-based; details: in vivo
[27] = species on record: Mus musculus; assay: Biodistribution of the injected compound in lung of female BALB/C mice for 2.5 hours; format: ADME, organism-based; details: in vivo
[28] = species on record: Mus musculus; assay: Biodistribution of the injected compound in lung of female BALB/C mice for 5 hours; format: ADME, organism-based; details: in vivo
[29] = species on record: Mus musculus; assay: Biodistribution of the injected compound in muscle of female BALB/C mice for 0.5 hours; format: ADME, organism-based, Muscle tissue; details: in vivo
[30] = species on record: Mus musculus; assay: Biodistribution of the injected compound in muscle of female BALB/C mice for 2.5 hours; format: ADME, organism-based, Muscle tissue; details: in vivo
[31] = species on record: Mus musculus; assay: Biodistribution of the injected compound in muscle of female BALB/C mice for 5 hours; format: ADME, organism-based, Muscle tissue; details: in vivo
[32] = species on record: Mus musculus; assay: Biodistribution of the injected compound in spleen of female BALB/C mice for 0.5 hours; format: ADME, organism-based; details: in vivo
[33] = species on record: Mus musculus; assay: Biodistribution of the injected compound in spleen of female BALB/C mice for 2.5 hours; format: ADME, organism-based; details: in vivo
[34] = species on record: Mus musculus; assay: Biodistribution of the injected compound in spleen of female BALB/C mice for 5 hours; format: ADME, organism-based; details: in vivo
[35] = species on record: Mus musculus; assay: Biodistribution of the injected compound in stomach of female BALB/C mice for 2.5 hours; format: ADME, organism-based; details: in vivo
[36] = species on record: Mus musculus; assay: Biodistribution of the injected compound in stomach of female BALB/C mice for 5 hours; format: ADME, organism-based; details: in vivo
[37] = Octanol/water distribution coefficient at pH 3; format: physicochemical
[38] = Octanol/water distribution coefficient at pH 4; format: physicochemical
[39] = Octanol/water distribution coefficient at pH 4.8; format: physicochemical
[40] = Octanol/water distribution coefficient at pH 5.5; format: physicochemical
[41] = Octanol/water distribution coefficient at pH 6.5; format: physicochemical
[42] = Octanol/water distribution coefficient at pH 7.4; format: physicochemical
[43] = Octanol/water distribution coefficient at pH 7.5; format: physicochemical
[44] = biological target: Glutamate receptor ionotropic AMPA (Homo sapiens, UniProt P42261+P42262+P42263+P48058); assay: Compound has been evaluated for its binding affinity towards Ionotropic glutamate receptor AMPA by displacing the radioligand [3H]AMPA; format: protein-complex assay
[45] = biological target: Glutamate [NMDA] receptor; assay: Compound has been evaluated for its binding affinity towards N-methyl-D-aspartate glutamate receptor by displacing the radioligand [3H]CGP-39653; format: protein-complex assay
[46] = biological target: Glutamate [NMDA] receptor; assay: Compound has been evaluated for its binding affinity towards N-methyl-D-aspartate glutamate receptor by displacing the radioligand [3H]MK-801; format: protein-complex assay
[47] = species on record: Mus musculus; assay: Biodistribution of the injected compound in stomach of female BALB/C mice for 0.5 hours; format: ADME, organism-based; details: in vivo
[48] = biological target: Glutamate receptor ionotropic kainate; assay: Compound has been evaluated for its binding affinity towards kainate by displacing the radioligand [3H]kainate; format: protein-complex assay

Compound: C[C@@H](NCc1cc(F)cc2[nH]c(=O)c(=O)[nH]c12)P(=O)(O)O
- pIC50 [1]: 8.05

Compound: C[C@@H](NCc1cc([N+](=O)[O-])cc2[nH]c(=O)c(=O)[nH]c12)[P+]([O-])(O)O
- pIC50 [1]: 7.49

Compound: C[C@@H](NCc1cc(I)cc2nc(O)c(O)nc12)P(=O)(O)O
- inhibition [2]: 49%
- ED50 [3]: 10 mg/kg
- Protection [4]: 20%

Compound: C[C@@H](NCc1cc(C#N)cc2[nH]c(=O)c(=O)[nH]c12)P(=O)(O)O
- pIC50 [1]: 7.12

Compound: C[C@@H](NCc1cc(C(F)(F)F)cc2[nH]c(=O)c(=O)[nH]c12)P(=O)(O)O
- pIC50 [1]: 8.10

The remaining compounds from weak to strong by pIC50 [1], led by results:

- Injected dose/g tissue [5]: 1.1%
- Injected dose/g tissue [6]: 0.54%
- Injected dose/g tissue [7]: 0.49%
- Injected dose/g tissue [8]: 1.46%
- Injected dose/g tissue [9]: 0.92%
- Injected dose/g tissue [10]: 0.78%
- Injected dose/g tissue [11]: 0.03%
- Injected dose/g tissue [12]: 0.01%
- Injected dose/g tissue [13]: 0.01%
- Injected dose/g tissue [14]: 1.34%
- Injected dose/g tissue [15]: 0.93%
- Injected dose/g tissue [16]: 0.82%
- Injected dose/g tissue [17]: 0.44%
- Injected dose/g tissue [18]: 0.22%
- Injected dose/g tissue [19]: 0.2%
- Injected dose/g tissue [20]: 6.68%
- Injected dose/g tissue [21]: 3.29%
- Injected dose/g tissue [22]: 2.98%
- Injected dose/g tissue [23]: 0.92%
- Injected dose/g tissue [24]: 0.49%
- Injected dose/g tissue [25]: 0.43%
- Injected dose/g tissue [26]: 0.96%
- Injected dose/g tissue [27]: 0.4%
- Injected dose/g tissue [28]: 0.38%
- Injected dose/g tissue [29]: 0.4%
- Injected dose/g tissue [30]: 0.21%
- Injected dose/g tissue [31]: 0.19%
- Injected dose/g tissue [32]: 0.46%
- Injected dose/g tissue [33]: 0.23%
- Injected dose/g tissue [34]: 0.21%
- Injected dose/g tissue [35]: 0.23%
- Injected dose/g tissue [36]: 0.22%
- logD [37]: -0.8
- logD [38]: -1.2
- logD [39]: -1.5
- logD [40]: -1.6
- logD [41]: -1.7
- logD [42]: -2.5
- logD [43]: -1.8
- pIC50 [44]: 6.47
- pIC50 [45]: < 5.00
- pIC50 [46]: < 5.00
- Injected dose/g tissue [47]: 0.58%
- pIC50 [1]: 8.10
Compound: C[C@@H](NCc1cc(I)cc2[nH]c(=O)c(=O)[nH]c12)P(=O)(O)O

- pIC50 [1]: 8.22
Compound: C[C@@H](NCc1cc(Cl)cc2nc(O)c(O)nc12)P(=O)(O)O

- pIC50 [44]: 5.52
- pIC50 [48]: 5.57
- pIC50 [45]: < 5.00
- pIC50 [46]: < 5.00
- pIC50 [1]: 8.30
Compound: C[C@@H](NCc1cc(Br)cc2nc(O)c(O)nc12)P(=O)(O)O
- ED50 [3]: 5 mg/kg
- Protection [4]: 60%
